Measured values from patent US8853203B2, “Diazepinone derivatives” (Novartis AG, priority 2012, dated 2014).

Columns and labels:
[1] = target: human mGluR1 (Homo sapiens (Human), UniProt Q13255); experiment: mGluR1 antagonism, L-glutamate induced intracellular calcium increase (FLIPR) in CHO cells stably expressing human mGluR1; format: cell-based; conditions: L-glutamate induced intracellular calcium, CHO cells expressing human mGluR1, FLIPR
[2] = target: human mGluR5a receptors (Homo sapiens (Human), UniProt P41594); experiment: inhibition of glutamate-induced elevation of intracellular calcium in L(tk-) cells expressing human mGluR5a; format: cell-based; conditions: glutamate-induced intracellular calcium elevation, L(tk-) cells expressing human mGluR5a; read-out: mGluR5 IC50
Chain of human mGluR5a receptors (P41594 other isoform, or with tags, fused parts or gaps): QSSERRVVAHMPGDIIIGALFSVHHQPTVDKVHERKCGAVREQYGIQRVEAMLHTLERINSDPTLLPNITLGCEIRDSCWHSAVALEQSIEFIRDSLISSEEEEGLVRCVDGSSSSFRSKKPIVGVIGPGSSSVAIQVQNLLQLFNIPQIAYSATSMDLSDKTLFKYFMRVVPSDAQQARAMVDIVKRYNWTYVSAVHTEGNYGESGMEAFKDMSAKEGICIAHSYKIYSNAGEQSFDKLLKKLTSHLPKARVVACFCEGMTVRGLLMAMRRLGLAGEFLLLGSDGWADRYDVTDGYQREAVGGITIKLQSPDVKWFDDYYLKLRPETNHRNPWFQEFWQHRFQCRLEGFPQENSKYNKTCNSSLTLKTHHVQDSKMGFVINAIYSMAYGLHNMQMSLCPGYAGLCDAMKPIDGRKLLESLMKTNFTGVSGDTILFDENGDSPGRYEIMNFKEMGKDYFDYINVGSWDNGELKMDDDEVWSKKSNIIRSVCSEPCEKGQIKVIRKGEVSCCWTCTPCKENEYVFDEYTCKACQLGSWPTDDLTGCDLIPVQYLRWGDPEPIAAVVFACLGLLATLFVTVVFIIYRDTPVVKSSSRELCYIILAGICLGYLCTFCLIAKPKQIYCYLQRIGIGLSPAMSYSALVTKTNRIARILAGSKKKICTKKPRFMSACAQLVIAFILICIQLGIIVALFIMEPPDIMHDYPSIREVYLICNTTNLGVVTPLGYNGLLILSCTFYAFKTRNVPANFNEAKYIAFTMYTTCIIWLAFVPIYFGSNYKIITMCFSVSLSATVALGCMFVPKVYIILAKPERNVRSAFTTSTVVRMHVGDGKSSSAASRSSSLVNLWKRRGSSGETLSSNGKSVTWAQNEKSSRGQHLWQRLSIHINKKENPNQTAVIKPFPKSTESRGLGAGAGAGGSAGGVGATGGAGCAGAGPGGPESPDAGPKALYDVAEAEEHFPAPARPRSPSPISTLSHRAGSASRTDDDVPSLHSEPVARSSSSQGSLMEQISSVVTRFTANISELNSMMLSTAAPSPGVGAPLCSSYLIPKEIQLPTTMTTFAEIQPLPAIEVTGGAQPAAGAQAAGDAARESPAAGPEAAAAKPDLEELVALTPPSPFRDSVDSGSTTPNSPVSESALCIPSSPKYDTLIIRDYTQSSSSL
Method in brief: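 Compounds tested for inhibition of the glutamate-induced rise in intracellular calcium concentration in L(tk-) cells stably expressing human mGluR5a.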

Chain of human mGluR1 (Q13255 19-1194): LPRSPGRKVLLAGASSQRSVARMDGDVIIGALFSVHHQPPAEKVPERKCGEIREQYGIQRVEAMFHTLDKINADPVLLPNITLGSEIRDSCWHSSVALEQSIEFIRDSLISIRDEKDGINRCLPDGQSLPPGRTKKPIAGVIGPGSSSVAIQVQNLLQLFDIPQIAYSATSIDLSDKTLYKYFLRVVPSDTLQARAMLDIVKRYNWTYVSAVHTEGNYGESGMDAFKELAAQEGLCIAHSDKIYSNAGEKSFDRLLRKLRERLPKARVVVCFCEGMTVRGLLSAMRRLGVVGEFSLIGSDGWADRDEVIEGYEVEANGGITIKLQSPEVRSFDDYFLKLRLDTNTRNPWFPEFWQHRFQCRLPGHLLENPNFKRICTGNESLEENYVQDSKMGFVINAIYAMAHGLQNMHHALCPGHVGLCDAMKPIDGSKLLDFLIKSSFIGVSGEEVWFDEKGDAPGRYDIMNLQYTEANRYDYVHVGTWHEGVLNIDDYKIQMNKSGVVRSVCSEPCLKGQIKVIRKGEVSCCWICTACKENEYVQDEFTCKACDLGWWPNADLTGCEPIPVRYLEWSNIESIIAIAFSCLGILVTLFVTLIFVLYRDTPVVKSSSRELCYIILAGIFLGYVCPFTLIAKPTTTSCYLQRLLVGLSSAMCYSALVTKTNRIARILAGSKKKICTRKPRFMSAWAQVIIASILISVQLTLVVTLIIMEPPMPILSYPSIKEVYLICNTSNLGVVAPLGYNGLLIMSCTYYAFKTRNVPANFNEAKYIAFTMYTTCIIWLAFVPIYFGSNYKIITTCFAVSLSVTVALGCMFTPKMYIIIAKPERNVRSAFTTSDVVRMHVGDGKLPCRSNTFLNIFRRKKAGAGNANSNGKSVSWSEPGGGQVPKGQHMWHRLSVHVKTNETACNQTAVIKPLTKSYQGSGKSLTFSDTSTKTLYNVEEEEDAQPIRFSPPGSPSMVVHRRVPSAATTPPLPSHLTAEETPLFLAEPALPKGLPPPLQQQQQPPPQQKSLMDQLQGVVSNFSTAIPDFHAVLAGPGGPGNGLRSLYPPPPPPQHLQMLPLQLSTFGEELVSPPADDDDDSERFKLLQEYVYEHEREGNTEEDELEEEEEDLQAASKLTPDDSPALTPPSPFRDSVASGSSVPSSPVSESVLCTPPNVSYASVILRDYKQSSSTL

| IC50 [1] | IC50 [2] | Structure (SMILES) |
| --- | --- | --- |
| 1950 nM | 100 nM | O=C1CN=C(n2cnc(C3CC3)c2)C=C2c3cccc(-c4cnccn4)c3CCN12 [Example 88f, 2-(4-Cyclopropyl-1H-Imidazol-1-yl)-9-(pyrazin-2-yl)-7,8-dihydro-[1,4]diazepino[7,1-a]isoquinolin-5(4H)-one] |
| 761 nM | 17 nM | O=C1CN=C(n2cnc(C3CC3)n2)C=C2c3cccc(-c4nccs4)c3CCN12 [Example 88g, 2-(3-cyclopropyl-1H-1,2,4-triazol-1-yl)-9-(thiazol-2-yl)-7,8-dihydro-[1,4]diazepino[7,1-a]isoquinolin-5(4H)-one] |
| 1050 nM | 46 nM | COCCc1cn(C2=NCC(=O)N3CCc4c(cccc4-c4nccs4)C3=C2)cn1 [Example 88h, 2-(4-(2-methoxyethyl)-1H-imidazol-1-yl)-9-(thiazol-2-yl)-7,8-dihydro-[1,4]diazepino[7,1-a]isoquinolin-5(4H)-one] |
| 1860 nM | 56 nM | CCOCc1cn(C2=NCC(=O)N3CCc4c(cccc4-c4nccs4)C3=C2)cn1 [Example 88j, 2-(4-(ethoxymethyl)-1H-imidazol-1-yl)-9-(thiazol-2-yl)-7,8-dihydro-[1,4]diazepino[7,1-a]isoquinolin-5(4H)-one] |
| 5860 nM | 69 nM | O=C1CN=C(n2cnc(C3CC3)c2)C=C2c3cccc(-c4cnccc4F)c3CCN12 [Example 88k, 2-(4-cyclopropyl-1H-imidazol-1-yl)-9-(4-fluoropyridin-3-yl)-7,8-dihydro-[1,4]diazepino[7,1-a]isoquinolin-5(4H)-one] |
| 220 nM | 9 nM | COCc1cn(C2=NCC(=O)N3CCc4c(cccc4C4CCC4)C3=C2)cn1 [Example 91, 9-cyclobutyl-2-(4-(methoxymethyl)-1H-imidazol-1-yl)-7,8-dihydro-[1,4]diazepino[7,1-a]isoquinolin-5(4H)-one] |
| 636 nM | < 1 nM | Cc1ncn(C2=NCC(=O)N3CCc4c(cccc4C4CCC4)C3=C2)n1 [Example 92, 9-cyclobutyl-2-(3-methyl-1H-1,2,4-triazol-1-yl)-7,8-dihydro-[1,4]diazepino[7,1-a]isoquinolin-5(4H)-one] |
| 1500 nM | 3 nM | COCc1ncn(C2=NCC(=O)N3CCc4c(cccc4C4CC4)C3=C2)n1 [Example 93, 9-cyclopropyl-2-(3-(methoxymethyl)-1H-1,2,4-triazol-1-yl)-7,8-dihydro-[1,4]diazepino[7,1-a]isoquinolin-5(4H)-one] |
| > 10000 nM | 2700 nM | CC(C)c1cn(C2=NCC(=O)N3CCc4c(-c5ccc(F)nc5)ccnc4C3=C2)cn1 [Example 94, 4-(6-fluoropyridin-3-yl)-11-(4-isopropyl-1H-imidazol-1-yl)-5,6-dihydro-[1,4]diazepino[1,7-h][1,7]naphthyridin-8(9H)-one] |

| Structure (SMILES) | IC50 [1] | IC50 [2] |
| --- | --- | --- |
| CCc1cccc2c1CCN1C(=O)CN=C(n3cnc(C(C)C)c3)C=C21 [Example 89, 9-ethyl-2-(4-isopropyl-1H-imidazol-1-yl)-7,8-dihydro-[1,4]diazepino[7,1-a]isoquinolin-5(4H)-one] | 650 nM | 28 nM |
| CCCc1cccc2c1CCN1C(=O)CN=C(n3cnc(C)c3)C=C21 [Example 90, 2-(4-methyl-1H-imidazol-1-yl)-9-propyl-7,8-dihydro-[1,4]diazepino[7,1-a]isoquinolin-5(4H)-one] | 1500 nM | 10 nM |
| O=C1CN=C(n2cnc(C3CC3)c2)C=C2c3cccc(-c4ccc(F)nc4)c3CCN12 [Example 95-1, 2-(4-cyclopropyl-1H-imidazol-1-yl)-9-(6-fluoropyridin-3-yl)-7,8-dihydro-[1,4]diazepino[7,1-a]isoquinolin-5(4H)-one] | 10000 nM | 20 nM |
| O=C1CN=C(n2cnc(C3CC3)n2)C=C2c3cccc(-c4ccc(F)nc4)c3CCN12 [Example 95-2, 2-(3-cyclopropyl-1H-1,2,4-triazol-1-yl)-9-(6-fluoropyridin-3-yl)-7,8-dihydro-[1,4]diazepino[7,1-a]isoquinolin-5(4H)-one] | > 10000 nM | 11 nM |
